In US20250262201A1, “COMPOUNDS AND METHODS USEFUL FOR STABILIZING PHENYLALANINE HYDROXYLASE MUTATIONS” (Agios Pharmaceuticals, Inc., priority 2022, published 2025):

Target: T1, human PAH with the R408W mutation (Homo sapiens, UniProt P00439, R408W)
T1 construct: expressed in transfected cells
T1 sequence (P00439 1-452 R408W): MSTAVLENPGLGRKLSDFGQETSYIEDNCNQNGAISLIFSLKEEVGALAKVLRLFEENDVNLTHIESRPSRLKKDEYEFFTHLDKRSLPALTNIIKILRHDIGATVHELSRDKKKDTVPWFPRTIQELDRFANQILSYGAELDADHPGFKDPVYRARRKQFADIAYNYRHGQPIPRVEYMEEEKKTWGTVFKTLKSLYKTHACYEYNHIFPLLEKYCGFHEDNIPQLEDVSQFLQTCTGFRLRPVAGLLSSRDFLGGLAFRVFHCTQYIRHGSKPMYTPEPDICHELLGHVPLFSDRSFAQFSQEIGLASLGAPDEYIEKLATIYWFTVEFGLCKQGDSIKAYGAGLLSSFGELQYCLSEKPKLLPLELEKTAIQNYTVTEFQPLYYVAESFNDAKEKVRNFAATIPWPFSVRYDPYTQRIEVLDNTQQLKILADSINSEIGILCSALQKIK
Experiment: Cell Based Phenylalanine Flux Assay
Settings: A375 R408W cells, 24 hrs with compound, then 20 μM sepiapterin and 800 μM 13C9,15N-Phenylalanine for 4 hours; 13C-Tyrosine by LC-MS; average where tested multiple times; read-out: AC50

| Structure (SMILES) | AC50 |
| --- | --- |
| Cn1nc(COC(F)(F)F)cc1C(=O)N1CCc2[nH]cnc2C1c1ccc2ccccc2n1 (stereo not shown) | 1 to 5 µM |
| COC(C)(C)c1nc(C)c(C(=O)N2CCc3[nH]cnc3C2c2ccc3ccccc3n2)o1 (stereo not shown) | 1 to 5 µM |
| O=C(c1oc(C2CC2)nc1C(F)F)N1CCc2[nH]cnc2C1c1ccc2ccccc2n1 (stereo not shown) | 1 to 5 µM |
| Cc1nc(N2CCN(C)CC2)oc1C(=O)N1CCc2[nH]cnc2C1c1ccc2ccccc2n1 (stereo not shown) | 1 to 5 µM |
| O=C(c1nnc(-c2ccn(CC(F)F)n2)o1)N1CCc2[nH]cnc2C1c1ccc2ccccc2n1 (stereo not shown) [listing 1 of 2 here] | 1 to 5 µM |
| O=C(c1nnc(-c2cn[nH]c2)o1)N1CCc2[nH]cnc2C1c1ccc2ccccc2n1 (stereo not shown) [listing 1 of 2 here] | 1 to 5 µM |
| O=C(c1nnc(CCN2CCOCC2)o1)N1CCc2[nH]cnc2C1c1ccc2ccccc2n1 (stereo not shown) [listing 1 of 2 here] | 1 to 5 µM |
| O=C(c1nnc(C2CC(F)(F)C2)o1)N1CCc2[nH]cnc2C1c1ccc2ccccc2n1 (stereo not shown) [listing 1 of 2 here] | 1 to 5 µM |
| O=C(c1nnc(-c2ccc(C(F)(F)F)cc2)o1)N1CCc2[nH]cnc2C1c1ccc2ccccc2n1 (stereo not shown) [listing 1 of 2 here] | 1 to 5 µM |
| Cc1cc(F)ccc1-c1nnc(C(=O)N2CCc3[nH]cnc3C2c2ccc3ccccc3n2)o1 (stereo not shown) | 1 to 5 µM |
| O=C(c1nnc(-c2ccc(C(F)(F)F)cn2)o1)N1CCc2[nH]cnc2C1c1ccc2ccccc2n1 (stereo not shown) [listing 1 of 2 here] | 1 to 5 µM |
| O=C(c1nnc(COC(F)(F)F)o1)N1CCc2[nH]cnc2C1c1ccc2ccccc2n1 (stereo not shown) [listing 1 of 2 here] | 1 to 5 µM |
| COCc1nnc(C(=O)N2CCc3[nH]cnc3C2c2ccc3ccccc3n2)o1 (stereo not shown) | 1 to 5 µM |
| O=C(c1nnc(CCNC2CC2)o1)N1CCc2[nH]cnc2C1c1ccc2ccccc2n1 (stereo not shown) [listing 1 of 2 here] | 1 to 5 µM |
| COCCNc1nnc(C(=O)N2CCc3[nH]cnc3C2c2ccc3ccccc3n2)o1 (stereo not shown) [listing 1 of 2 here] | 1 to 5 µM |
| CN(C)c1nnc(C(=O)N2CCc3[nH]cnc3C2c2ccc3ccccc3n2)o1 (stereo not shown) [listing 1 of 2 here] | 1 to 5 µM |
| Cc1nc(N(C)C)oc1C(=O)N1CCc2[nH]cnc2C1c1ccc2ccccc2n1 (stereo not shown) | 1 to 5 µM |
| Cc1nc(CCN(C)C)oc1C(=O)N1CCc2[nH]cnc2C1c1ccc2ccccc2n1 (stereo not shown) | 1 to 5 µM |
| CN(C)Cc1nnc(C(=O)N2CCc3[nH]cnc3C2c2ccc3ccccc3n2)o1 (stereo not shown) [listing 1 of 2 here] | 1 to 5 µM |

| Structure (SMILES) | AC50 |
| --- | --- |
| O=C(c1nnc(-c2ccn(CC(F)F)n2)o1)N1CCc2[nH]cnc2C1c1ccc2ccccc2n1 (stereo not shown) [listing 2 of 2 here] | > 5 µM |
| O=C(c1nnc(-c2cn[nH]c2)o1)N1CCc2[nH]cnc2C1c1ccc2ccccc2n1 (stereo not shown) [listing 2 of 2 here] | > 5 µM |
| O=C(c1nnc(CCN2CCOCC2)o1)N1CCc2[nH]cnc2C1c1ccc2ccccc2n1 (stereo not shown) [listing 2 of 2 here] | > 5 µM |
| O=C(c1nnc(C2CC(F)(F)C2)o1)N1CCc2[nH]cnc2C1c1ccc2ccccc2n1 (stereo not shown) [listing 2 of 2 here] | > 5 µM |
| O=C(c1nnc(-c2ccc(C(F)(F)F)cc2)o1)N1CCc2[nH]cnc2C1c1ccc2ccccc2n1 (stereo not shown) [listing 2 of 2 here] | > 5 µM |
| O=C(c1nnc(-c2ccc(C(F)(F)F)cn2)o1)N1CCc2[nH]cnc2C1c1ccc2ccccc2n1 (stereo not shown) [listing 2 of 2 here] | > 5 µM |
| O=C(c1nnc(COC(F)(F)F)o1)N1CCc2[nH]cnc2C1c1ccc2ccccc2n1 (stereo not shown) [listing 2 of 2 here] | > 5 µM |
| O=C(c1nnc(CCNC2CC2)o1)N1CCc2[nH]cnc2C1c1ccc2ccccc2n1 (stereo not shown) [listing 2 of 2 here] | > 5 µM |
| COCCNc1nnc(C(=O)N2CCc3[nH]cnc3C2c2ccc3ccccc3n2)o1 (stereo not shown) [listing 2 of 2 here] | > 5 µM |
| CN(C)c1nnc(C(=O)N2CCc3[nH]cnc3C2c2ccc3ccccc3n2)o1 (stereo not shown) [listing 2 of 2 here] | > 5 µM |
| CN(C)Cc1nnc(C(=O)N2CCc3[nH]cnc3C2c2ccc3ccccc3n2)o1 (stereo not shown) [listing 2 of 2 here] | > 5 µM |
| Cc1ncoc1C(=O)N1CC2(CC2)c2[nH]cnc2C1c1ccc2ccccc2n1 (stereo not shown) | 1 to 5 µM |
| CC1CN(C(=O)c2nnc(C(C)(C)O)o2)C(c2cc3ccccc3cn2)c2nc[nH]c21 (stereo not shown) | 1 to 5 µM |
| CC1CN(C(=O)c2nnc(N3CCOCC3)o2)C(c2cc3ccccc3cn2)c2nc[nH]c21 (stereo not shown) [listing 1 of 2 here] | 1 to 5 µM |
| CC1CN(C(=O)c2nnc(N(C)C)o2)C(c2cc3ccccc3cn2)c2nc[nH]c21 (stereo not shown) [listing 1 of 3 here] | 1 to 5 µM |
| CC1CN(C(=O)c2nnc(N(C)C)o2)C(c2cc3ccccc3cn2)c2nc[nH]c21 (stereo not shown) [listing 2 of 3 here] | 1 to 5 µM |
| CC1CN(C(=O)c2nnc(N3CCOCC3)o2)C(c2cc3ccccc3cn2)c2nc[nH]c21 (stereo not shown) [listing 2 of 2 here] | > 5 µM |
| CC1CN(C(=O)c2nnc(N(C)C)o2)C(c2cc3ccccc3cn2)c2nc[nH]c21 (stereo not shown) [listing 3 of 3 here] | > 5 µM |

Further lines, results first:

| AC50 | Structure (SMILES) |
| --- | --- |
| 1 to 5 µM | O=C(C1CN(CC(F)(F)F)C1)N1CCc2[nH]cnc2C1c1ccc2ccccc2n1 (stereo not shown) [listing 1 of 2 here] |
| 1 to 5 µM | O=C(c1cnn(-c2ccccn2)c1)N1CCc2[nH]cnc2C1c1ccc2ccccc2n1 (stereo not shown) |
| 1 to 5 µM | O=C(C1CN(c2ccccn2)C1)N1CCc2[nH]cnc2C1c1ccc2ccccc2n1 (stereo not shown) [listing 1 of 2 here] |
| 1 to 5 µM | Cn1cc(-c2ncc(C(=O)N3CCc4[nH]cnc4C3c3ccc4ccccc4n3)o2)cn1 (stereo not shown) |
| 1 to 5 µM | Cc1nc(CCN2CC(F)C2)oc1C(=O)N1CCc2[nH]cnc2C1c1ccc2ccccc2n1 (stereo not shown) [listing 1 of 2 here] |
| 1 to 5 µM | Cc1nc(N2CCC(F)CC2)oc1C(=O)N1CCc2[nH]cnc2C1c1ccc2ccccc2n1 (stereo not shown) [listing 1 of 2 here] |
| 1 to 5 µM | O=C(c1oc(-c2ccccn2)nc1C1CC1)N1CCCc2[nH]cnc2C1c1ccc2ccccc2n1 (stereo not shown) [listing 1 of 2 here] |
| 1 to 5 µM | Cc1nc(N2CCOCC2)oc1C(=O)N1CCc2[nH]cnc2C1c1ccc2ccccc2n1 (stereo not shown) [listing 1 of 2 here] |
| 1 to 5 µM | O=C(c1nnc(N2CC(F)C2)o1)N1CCc2[nH]cnc2C1c1ccc2ccccc2n1 (stereo not shown) [listing 1 of 2 here] |
| 1 to 5 µM | O=C(c1nnc(N2CCC(F)CC2)o1)N1CCc2[nH]cnc2C1c1ccc2ccccc2n1 (stereo not shown) [listing 1 of 2 here] |
| > 5 µM | O=C(c1nnc(-c2ccccn2)o1)N1CCCc2[nH]cnc2C1c1ccc2ccccc2n1 (stereo not shown) |
| 1 to 5 µM | O=C(c1cnn(-c2ccccn2)c1Cl)N1CCc2[nH]cnc2C1c1ccc2ccccc2n1 (stereo not shown) [listing 1 of 2 here] |
| 1 to 5 µM | COCCc1ccc2c(C(=O)N3CCc4[nH]cnc4C3c3ccc4ccccc4n3)cnn2c1 (stereo not shown) [listing 1 of 2 here] |
| > 5 µM | COCc1ccc2c(C(=O)N3CCc4[nH]cnc4C3c3ccc4ccccc4n3)cnn2c1 (stereo not shown) |
| 1 to 5 µM | O=C(C1CC1(F)F)N1CCc2[nH]cnc2C1c1ccc2ccccc2n1 (stereo not shown) |
| 1 to 5 µM | Cc1nc(N)oc1C(=O)N1CCc2[nH]cnc2C1c1ccc2ccccc2n1 (stereo not shown) [listing 1 of 2 here] |
| 1 to 5 µM | Cc1nc(NC2CC2)oc1C(=O)N1CCc2[nH]cnc2C1c1ccc2ccccc2n1 (stereo not shown) [listing 1 of 2 here] |

| AC50 | Structure (SMILES) |
| --- | --- |
| 1 to 5 µM | O=C(c1nnc(NC2CC2)o1)N1CCc2[nH]cnc2C1c1ccc2ccccc2n1 (stereo not shown) [listing 1 of 2 here] |
| > 5 µM | COC(=O)N1CC(C(=O)N2CCc3[nH]cnc3C2c2ccc3ccccc3n2)C1 (stereo not shown) |
| > 5 µM | O=C(C1CN(CC(F)(F)F)C1)N1CCc2[nH]cnc2C1c1ccc2ccccc2n1 (stereo not shown) [listing 2 of 2 here] |
| > 5 µM | O=C(C1CN(c2ccccn2)C1)N1CCc2[nH]cnc2C1c1ccc2ccccc2n1 (stereo not shown) [listing 2 of 2 here] |
| > 5 µM | Cc1nc(CCN2CC(F)C2)oc1C(=O)N1CCc2[nH]cnc2C1c1ccc2ccccc2n1 (stereo not shown) [listing 2 of 2 here] |
| > 5 µM | Cc1nc(N2CCC(F)CC2)oc1C(=O)N1CCc2[nH]cnc2C1c1ccc2ccccc2n1 (stereo not shown) [listing 2 of 2 here] |
| > 5 µM | COCc1ncc(C(=O)N2CCc3[nH]cnc3C2c2ccc3ccccc3n2)s1 (stereo not shown) |
| > 5 µM | O=C(c1oc(-c2ccccn2)nc1C1CC1)N1CCCc2[nH]cnc2C1c1ccc2ccccc2n1 (stereo not shown) [listing 2 of 2 here] |
| > 5 µM | Cc1nc(N2CCOCC2)oc1C(=O)N1CCc2[nH]cnc2C1c1ccc2ccccc2n1 (stereo not shown) [listing 2 of 2 here] |
| > 5 µM | O=C(c1nnc(N2CC(F)C2)o1)N1CCc2[nH]cnc2C1c1ccc2ccccc2n1 (stereo not shown) [listing 2 of 2 here] |
| > 5 µM | O=C(c1nnc(N2CCC(F)CC2)o1)N1CCc2[nH]cnc2C1c1ccc2ccccc2n1 (stereo not shown) [listing 2 of 2 here] |
| > 5 µM | O=C(c1cnn(-c2ccccn2)c1Cl)N1CCc2[nH]cnc2C1c1ccc2ccccc2n1 (stereo not shown) [listing 2 of 2 here] |
| > 5 µM | COCCc1ccc2c(C(=O)N3CCc4[nH]cnc4C3c3ccc4ccccc4n3)cnn2c1 (stereo not shown) [listing 2 of 2 here] |
| > 5 µM | Cc1nc(N)oc1C(=O)N1CCc2[nH]cnc2C1c1ccc2ccccc2n1 (stereo not shown) [listing 2 of 2 here] |
| > 5 µM | Cc1nc(NC2CC2)oc1C(=O)N1CCc2[nH]cnc2C1c1ccc2ccccc2n1 (stereo not shown) [listing 2 of 2 here] |
| > 5 µM | O=C(c1nnc(NC2CC2)o1)N1CCc2[nH]cnc2C1c1ccc2ccccc2n1 (stereo not shown) [listing 2 of 2 here] |
